Assay results taken from patent US20040097422A1, “Methods of use for tripeptidyl peptidase II inhibitors as anticancer agents” (priority 2002, published 2004).
“Also recorded” adds a separate entry of the source. Residues, ends and D or L forms follow the SMILES beside them. *: point of attachment. CH2Cl = ClC*

Legend:
Format in all cases: cell-based, human
[1] = tested on: U20S/centrin-GFP cells; assay: Abnormal centriole numbers in transiently transfected U20S/centrin-GFP cells after inhibitor treatment
From the text: (§1) Cell Culture and Transfections. Normal human keratinocytes (NHKs) were isolated from neonatal foreskins and cultured as described previously (Jones, et al. 1997 Genes Dev 11, 2101-11). NHKs were transiently transfected using FuGENE 6 (Roche Molecular Biochemicals, Indianapolis, Ind.) according to manufacturer's instructions. The human osteosarcoma cell line U20S was obtained from the American Type Culture Collection (ATCC) and maintained in Dulbecco's modified Eagle medium (DMEM) supplemented with 10% fetal bovine serum, 50 units/ml penicillin and 50 μg/ml streptomycin. Stable populations expressing centrin-GFP were generated by transfecting U20S cells with 10 μg of a centrin-GFP construct using calcium phosphate co-precipitation (Chen, et al. 1987 Mol Cell Biol 7, 2745-2752) and expansion of stable clones after G418 selection. All transient transfection experiments in U20S/centrin-GFP cells were performed using calcium phosphate coprecipitation (Chen, 1987 Mol Cell Biol 7, 2745-2752). Expression plasmids used were c-Myc, E2F-1, HPV-16 E7, HPV-16 E6, or a hemagglutinin-tagged dominant-negative DP1 mutant (DP 1-HA). Empty vector controls (pCMVneo) were included in all experiments. In all transient transfection experiments, cells were co-transfected with either farnesylatable green fluorescent protein (GFP), DsRed fluorescent protein, or cyan fluorescent protein (CFP; all from Clontech, Inc., Palo Alto, Calif.) as indicated and only cells expressing the respective fluorescent protein were evaluated. The human Burkitt's lymphoma cell line GA-10 was obtained from ATCC and maintained in RPMI 1640 medium containing 10 mM HEPES and supplemented with 10% fetal bovine serum, 50 units/ml penicillin and 50 μg/ml streptomycin. Adapted GA-10 cells were obtained by cultivation of cells in the presence of 1 μM clastolactacystin β-lactone (CLBL; Sigma Corp., St. Louis, Mo.) or 0.1% dimethyl sulfoxide (DMSO; ICN, Inc., Costa Mesa, California).
Proteasome and TPPII inhibition. U20S/centrin-GFP cells were transiently transfected with expression plasmids as indicated using calcium phosphate coprecipitation, washed with PBS 14 hours after transfection, incubated in normal growth media for 8 hours, and incubated in the presence of the inhibitor for another 24 hours. For proteasome inhibition, clastolactacystin β-lactone (CLBL; Sigma Corp.) was used at a […] concentration dissolved in DMSO. The TPPII inhibitor H-Ala-Ala-Phe-chloromethylketone (AAF-CMK; Sigma Corp.) was used at a 1 or 10 μM concentration, respectively, dissolved in DMSO. TPPII inhibitors such as AAF-MCA (ala-ala-phe-methylcoumarin amide) are available from Peptides International, Inc., Louisville, Ky. […] Solvent controls (DMSO or water) were included in all experiments.
Whether this observed increase of cells with abnormal centrosome numbers results from a primary duplication error was further addressed by analyzing the ability of c-Myc to induce abnormal centriole synthesis under transient conditions. Centriole number abnormalities induced by c-Myc were compared to those obtained with different oncogenic stimuli which have been reported previously to deregulate centrosome duplication (Duensing, 2000 Proc Natl Acad USA 97, 10002-7). Besides c-Myc, each of HPV-16 E7, the cooperating oncogene HPV-16 E6, and E2F-1 were included in these experiments. U20S/centrin-GFP cells were transiently transfected with expression plasmids as indicated, and mitochondrial DsRed fluorescent protein was used as a transfection marker (FIGS. 2c,d). Since duplication of centrioles prior to a cell division gives rise to four centrioles, cells with more than four centrioles were considered to have an abnormal number of centrioles.
Analogous to cell cycle progression, centrosome duplication requires activity of the ubiquitin/proteasome machinery (Freed, et al. 1999 Gene Dev 13, 2242-57). […]

[2] = tested on: U20S/centrin-GFP cells; assay: DNA content / cell cycle profile by propidium iodide flow cytometry; details: 10 μM, 24 hours
Description: Flow cytometry. DNA content of cells was analyzed by propidium iodide staining followed by flow cytometry as described previously (Thompson, et al. 1997 Oncogene 15, 3025-35).

[3] = tested on: GA-10 cells; assay: Abnormal centrosome numbers in GA-10 cells by γ-tubulin immunofluorescence; details: GA-10 cells adapted to 1 μM CLBL; untreated 18.7%, DMSO 19.9%
Description: For immunofluorescence analysis, sections of formalin-fixed, paraffin-embedded tissue were processed as described previously (Duensing, 2000 Proc Natl Acad 801 USA 97, 10002-7). Cultured cells were either grown on coverslips or cytospin preparations were made from cells growing in suspension. Cells were fixed in 4% paraformaldehyde in PBS and permeabilized with 1% Triton-X 100 in PBS for 10 min each at room temperature. […] Ki-67 was detected using a mouse monoclonal antibody (clone Ki-67; Dako Cytomation California, Inc., Carpinteria, California) at a 1:100 dilution followed by a rhodomine red-labeled donkey anti-mouse secondary antibody as described above. […] Cells were analyzed using a Leica DMLB epifluorescence microscope equipped with a multiband and a CFP filter set (Omega Optical, Brattleboro, Vt.) and a Sony DKC5000 camera system. […]
The proportion of cells with abnormal centrosome numbers was determined using immunofluorescence microscopy for γ-tubulin. […]

[4] = tested on: TPPII; assay: TPPII protein level in adapted GA-10 cells (immunoblot); details: GA-10 cells adapted to 1 μM CLBL
Description: Immunological Methods. Immunoblot analysis was performed as described previously (Jones et al., 1997). Antibodies used were directed against c-Myc (9E10; Covance/Babco, Berkeley, California), p53 (Ab-6; Oncogene Research Products, Inc., San Diego, Calif.), HPV-16 E7 (ED17; Santa Cruz Biotechnology, Inc., Santa Cruz, California), E2F-1 (C-20; Santa Cruz), HA (12CA5; Boehringer Mannheim, Mannheim, Germany), tripetidyl peptidase II (OEM Concepts, Inc.; Toms River, New Jersey), or Actin (C-2, Santa Cruz).
Based on observations herein that TPPII is required for c-Myc induced abnormal centriole duplication, the effect of growth of cells in the presence of a proteasome inhibitor on altered centrosome numbers, control of centrosome duplication, and cell viability was examined. Cells of a human t(8;14) positive, Epstein-Barr virus (EBV) negative Burkitt's lymphoma cell line GA-10 were used. Cells were grown in the presence of 1 μM CLBL (proteosome inhibitor clastolactacystin β-lactone) or with 0.1% DMSO as a solvent control.

[5] = tested on: Burkitt's lymphoma cell line GA-10; assay: Viability of GA-10 cells grown with proteasome inhibitor (trypan blue exclusion)
Description: FIG. […] FIG. 5b is an immunoblot analysis of TPPII and c-Myc expression in GA-10 cells adapted to grow in the presence of 1 μM CLBL or 0.1% DMSO. FIG. 5c is a visualizations of centrosomes in GA-10 cells adapted to grow in the presence of 0.1% DMSO (c) or 1 μM CLBL right. Immunofluorescence for γ-tubulin is rhodamine red. Nuclei were stained with DAPI. […] Each bar indicates average+standard error of triplicate colony counts.
as §1, with “The human Burkitt's lymphoma cell line GA-10 was obtained from ATCC and maintained in RPMI 1640 medium containing 10 mM HEPES and supplemented with 10% fetal bovine serum, 50 units/ml penicillin and 50 μg/ml streptomycin. Adapted GA-10 cells were obtained by cultivation of cells in the presence of 1 μM clastolactacystin β-lactone (CLBL; Sigma Corp., St. Louis, Mo.) or 0.1% dimethyl sulfoxide (DMSO; ICN, Inc., Costa Mesa, California).” left out

[6] = tested on: CLBL-adapted GA-10 cells; assay: Soft agar colony formation (clonogenic assay); details: 10 μM butabindide, one week
Description: Clonogenic assay. For assessment of soft agar colony formation, adapted GA-10 cells were suspended in 37° C.
(§2) Centrosome duplication is necessary for orderly progression through mitosis and re-entry in the cell cycle (Hinchcliffe, et al. 2001 Genes Dev 15, 1167-81) in most mammalian cells. Whether TPPII activity is necessary for the growth of CLBL-adapted Burkitt's lymphoma cells was investigated.

[7] = tested on: CLBL-adapted GA-10 cells; assay: Growth (viable cell number) of CLBL-adapted GA-10 cells; details: 0.1, 1.0, 10, 100 or 500 μM butabindide
Description: (§3) FIG. 5a is an analysis of viability of GA-10 cells grown in the presence of 1 μM CLBL or solvent control (0.1% DMSO) as determined by trypan blue exclusion. FIG. 5b is an immunoblot analysis of TPPII and c-Myc expression in GA-10 cells adapted to grow in the presence of 1 μM CLBL or 0.1% DMSO. FIG. 5c is a visualizations of centrosomes in GA-10 cells adapted to grow in the presence of 0.1% DMSO (c) or 1 μM CLBL right. Immunofluorescence for γ-tubulin is rhodamine red. Nuclei were stained with DAPI. […] Each bar indicates average+standard error of triplicate colony counts.
as §2

[8] = tested on: CLBL-adapted Burkitt's lymphoma cells; assay: Mitotic spindle formation / centrosome function; details: butabindide treated
Description: as §3, §2

[9] = tested on: U20S/centrin-GFP cells; assay: Simultaneous Ki-67 proliferation and centriole number assay in c-Myc transfected cells; details: 10 μM butabindide for 24 hours
Description: For immunofluorescence analysis, sections of formalin-fixed, paraffin-embedded tissue were processed as described previously (Duensing, 2000 Proc Natl Acad 801 USA 97, 10002-7). Cultured cells were either grown on coverslips or cytospin preparations were made from cells growing in suspension. Cells were fixed in 4% paraformaldehyde in PBS and permeabilized with 1% Triton-X 100 in PBS for 10 min each at room temperature. Cells were then blocked with 10% normal donkey serum (Jackson Immunoresearch, West Grove, Pa.) and incubated with a mouse monoclonal anti-γ-tubulin antibody (GTU-88; Sigma Corp.; St. Louis, Mo.) at a 1:2000 dilution overnight at 4° C. followed by a donkey anti-mouse rhodamine red conjugated secondary antibody (Jackson ImmunoResearch Laboratories, Inc., West Grove, Pa.) at a 1:100 dilution in PBS or a donkey anti-mouse FITC labeled secondary antibody at a 1:200 dilution in PBS for 2 hours at 37° C. Ki-67 was detected using a mouse monoclonal antibody (clone Ki-67; Dako Cytomation California, Inc., Carpinteria, California) at a 1:100 dilution followed by a rhodomine red-labeled donkey anti-mouse secondary antibody as described above. […] Cells were analyzed using a Leica DMLB epifluorescence microscope equipped with a multiband and a CFP filter set (Omega Optical, Brattleboro, Vt.) and a Sony DKC5000 camera system. […]

Row | Structure (SMILES) | Significance of decrease in abnormal centriole numbers, c-Myc transfected cells ([1]; 1 μM AAF-CMK, p≦0.05) | Changes in abnormal centriole numbers in E2F-1 or HPV-16 E7 expressing cells ([1]; E2F-1 or HPV-16 E7 transfected, AAF-CMK for 24 hours) | Proportion of c-Myc expressing cells with abnormal centriole numbers ([1]; c-Myc transfected, 1 and 10 μM AAF-CMK for 24 hours) | Cell cycle profile (DNA content) [2] | Decrease of abnormal centriole duplication driven by E2F-1 ([1]; E2F-1 transfected, 0.8 mM CLBL for 24 hours, p≦0.05) | Decrease of abnormal centriole duplication driven by HPV-16 E7 ([1]; HPV-16 E7 transfected, 0.8 mM CLBL for 24 hours, p≦0.01) | Proportion of cells with abnormal centriole numbers in cells expressing c-Myc ([1]; c-Myc transfected, 0.8 mM CLBL for 24 hours) | Proportion of cells with abnormal centrosome numbers [3] | Protein levels of TPPII [4] | Cell viability of GA-10 cells ([5]; 1 μM CLBL) | Time until cell survival was restored ([5]; 1 μM CLBL) | Cell viability of GA-10 cells at higher concentrations ([5]; higher concentrations of CLBL than 1 μM) | Colony formation in soft agar [6] | Number of c-Myc expressing cells with abnormal centriole numbers ([1]; c-Myc transfected, butabindide increasing concentrations up to 10 μM, 24 hours, p≦0.001) | Growth of CLBL-adapted GA-10 cells [7] | Spindle formation in treated cells [8] | Cells unable to nucleate a microtubule spindle ([8]; 44% without) | Ki-67 negative growth arrested cells [9] | Number of c-Myc expressing cells with abnormal centriole numbers (mostly Ki-67 positive) ([9]; CFP transfection marker)
1 | C[C@H](N)C(=O)N[C@@H](C)C(=O)N[C@@H](Cc1ccccc1)C(=O)CCl [AAF-CMK, H-Ala-Ala-Phe-chloromethylketone] (H-Ala-Ala-Phe-CH2Cl) | statistically significant | not significant | Reduction of the proportion of c-Myc expressing cells with abnormal centriole numbers | neither treatment of cells with 10 μM AAF-CMK, nor with 10 μM butabindide, was found to substantially alter the cell cycle profile |  |  |  |  |  |  |  |  |  |  |  |  |  |  | 
2 | CC(C)[C@H](O)[C@@]12NC(=O)[C@H](C)[C@@H]1OC2=O [CLBL, clastolactacystin β-lactone] |  |  |  |  | 1.7 fold | 2 fold | did not significantly reduce | 19.4% | increased protein levels of TPPII | marked decrease of cell viability | ≤ 10 days | massive cell death |  |  |  |  |  |  | 
3 | CCCCNC(=O)[C@@H]1Cc2ccccc2N1C(=O)[C@@H](N)CC [butabindide] |  |  |  | neither treatment of cells with 10 μM AAF-CMK, nor with 10 μM butabindide, was found to substantially alter the cell cycle profile |  |  |  |  |  |  |  |  | significantly suppressed colony formation | dose-dependent and statistically highly significant reduction; also recorded: completely blocks abnormal centriole duplication | reduced the growth of CLBL-adapted GA-10 cells in a dose dependent manner | abrogation of spindle formation | 66% | major increases of Ki-67 negative growth arrested cells were not observed | decrease in the number of c-Myc expressing cells with abnormal centriole numbers
